Data from patent US20220362386A1, “LIQUID COMPOSITIONS COMPRISING A LEVODOPA AMINO ACID CONJUGATE AND USES THEREOF” (NeuroDerm, Ltd., priority 2019, published 2022).
Structures can show the parent of a compound that is named as a salt. Where two headings read alike, the source gives them in different places. Non-standard residues stand in square brackets, D forms with d. Residues, ends and D or L forms follow the SMILES beside them. Dopa = N[C@@H](Cc1ccc(O)c(O)c1)C(=O)O

Legend:
[1] = Human blood stability test; format: in vitro ADME; set-up: key: slope of % decrease of remaining compound over time; higher = faster metabolism; conditions: slope of the percentage decrease of remaining compound; substrate 10 μM; 0-60 minutes
Experimental: The stability of several LDAA compounds in human blood was tested. The substrate concentration was 10 μM and the incubation time 0, 5, 15, 30 and 60 minutes.
The results are described in Table 19, wherein the results describe the Ke, i.e., the slope of the percentage decrease of the remaining amount of the compound, measured at each of the above time points, such that the higher the Ke the faster the metabolism.

[2] = Protein binding, equilibrium dialysis method; format: in vitro ADME, human; conditions: human, human plasma, pH 7.4, 1.0E-05M
Experimental: (§1) The protein binding values of various LDAA compounds in their TFA salt form (10^−5M) were tested in human plasma. The equilibrium dialysis technique was used to separate the fraction of the test compound that was unbound from the fraction of the test compound that bound to proteins during the test. The test was performed on 96-well plates in a dialysis block constructed from Teflon™.
(§2) The protein containing matrix used was human plasma, wherein the assay matrix was human serum albumin and alpha-1 acid glycoprotein. The protein matrix was spiked with each test compound at 10 μM (by default, n=2) with a final DMSO concentration of 1%. The dialysate compartment is loaded with phosphate buffered saline (PBS, pH 7.4), and the sample compartment was loaded with an equal volume of the spiked protein matrix. The dialysis plate was then sealed and incubated at 37° C. for 4 h.
(§3) Following the incubation, samples were taken from each compartment, diluted with PBS followed by the addition of acetonitrile, after which the samples were centrifuged. The supernatants were collected and analyzed by HPLC-MS/MS. The HPLC tests included a binary LC pump with an autosampler, a C18 column (2×20 mm), and gradient elution. The HPLC conditions were adjusted when necessary.
(§4) A control sample (n=2) was prepared from the spiked protein matrix in the same manner; however, no dialysis was performed on the control. It is noted that the control sample served as the bases for the recovery determination.
(§5) Acebutolol, quinidine, and warfarin were used in each assay as reference compounds, wherein it is known that those reference compounds provide low, medium and high human plasma protein binding values, respectively.
(§6) The % of the tested compound that is bound to proteins and the recovery values were calculated as follows:
(§7) Protein binding (%)=100×(Areap−Areab)/Areap
(§8) Recovery (%)=100×(Areap−Areab)/Areac
(§9) The determination of the recovery % serves as an indicator of reliability of the calculated protein binding value. […] This is most likely due to non-specific binding or degradation of the test compound. It is noted that a recovery of above 60% is considered to be reliable, while under 60% recovery, the results of the test are considered to be unreliable.

human plasma = assay: Protein binding, equilibrium dialysis method; format: in vitro ADME; conditions: 1.0E-05M; 37° C., 4 h
Experimental: as §1, §2, §3, §4, §5, §6, §7, §8, §9

[3] = In-vitro absorption, Caco-2 A-B permeability; format: in vitro ADME, human; conditions: human, Caco-2, pH 7.4, Caco-2 A-B, without verapamil; for Papp A→B at 60 min, 10 μM: 1.0E−05M
Experimental: (§10) Conditions may be adjusted when necessary.
(§11) D denotes donor and R is receiver. […] V is the volume of the donor or receiver.
(§12) The test was performed with and without verapamil, which is a permeation inhibitor, and the results are presented in Tables 22 (without verapamil) and 34 (with verapamil).

P-gp = assay: In-vitro absorption, Caco-2 A-B permeability; format: in vitro ADME, human; conditions: human, Caco-2, pH 7.4, with verapamil 100 μM on both the A and B sides, Caco-2 A-B, in the presence of verapamil
Experimental: as §10, §11, §12

[4] = Comparative formulation tests, physical stability (Tables 32a-c, 33a-c); format: physicochemical; conditions: LDAA TFA salt/CD formulation; for Physical stability (visual), Day 1: Day 1, room temperature; for Physical stability (visual), Day 2: Day 2, room temperature; for Physical stability (visual), Day 5: Day 5, room temperature after two days at 2-8° C.; for Physical stability (visual), Day 6: Day 6, room temperature after two days at 2-8° C.; for Physical stability (visual), Day 40: Day 40, returned to 2-8° C.
Experimental: It is noted that the formulations were similarly to those above; however, CD was added, and further, the amounts of the antioxidants, i.e., ascorbic acid and NAC, were added at three different concentrations, as detailed in Tables 32a-c below. Further, an additional amount of arginine was added to the solution in order to adjust the pH to a physiologically acceptable pH.
The formulations prepared as detailed in Tables 32a, 32b and 32c were (a) held at room temperature for two days; (b) transferred to a refrigerator (2-8° C.) for two days; and (c) transferred from the refrigerator to room temperature for an additional two days, during which they were assessed again for precipitants. The formulations were then returned to the refrigerator (2-8° C.) and assessed for precipitants on day 40. The physical stability of each formulation was assessed on the first two days and again on the last two days. The physical stability of the formulations was assessed visually. A clear solution was considered to be stable, while a solution comprising precipitants was considered to be physically unstable. The stability results of the formulations of Tables 32a, 32b and 32c are detailed in Tables 33a, 33b and 33c, respectively.

[5] = read-out: Percent Recovery Mean
[6] = NB 144-15, ~0.1% Asc + ~0.1% NAC
[7] = NB 144-18, ~0.4% Asc + ~0.4% NAC
[8] = NB 144-20, ~0.8% Asc + ~0.8% NAC

NCCCC[C@H](NC(=O)[C@@H](N)Cc1ccc(O)c(O)c1)C(=O)O [LD-Lys TFA salt, Levodopa Lysine TFA Salt] (H-[Dopa]-Lys-OH)
Ke [1]: 0.0655
recovery at 4 h, 10 μM ([2]; read-out: % Recovery 1st): 12%
recovery at 4 h, 10 μM ([2]; read-out: % Recovery 2nd): 19%
recovery at 4 h, 10 μM ([2]; read-out: % Recovery Mean): 16%
% Protein Bound 1st (human plasma): 59.5%
% Protein Bound 2nd (human plasma): 53.1%
% Protein Bound Mean (human plasma): 56%
Papp A→B at 60 min, 10 μM ([3]; read-out: Permeability 1st): 0.12 ×10⁻⁶ cm/s
Papp A→B at 60 min, 10 μM ([3]; read-out: Permeability 2nd): 0.09 ×10⁻⁶ cm/s
Papp A→B at 60 min, 10 μM ([3]; read-out: Permeability Mean): < 0.1 ×10⁻⁶ cm/s
recovery at 60 min, 10 μM ([3]; read-out: Percent Recovery 1st): 21%
recovery at 60 min, 10 μM ([3]; read-out: Percent Recovery 2nd): 38%
recovery at 60 min, 10 μM [3, 5]: 30%
recovery at 60 min, 10 μM (P-gp; read-out: Percent Recovery 1st): 33%
recovery at 60 min, 10 μM (P-gp; read-out: Percent Recovery 2nd): 33%
recovery at 60 min, 10 μM (P-gp; [5]): 33%
Physical stability (visual), Day 1 [4, 6]: Precipitated
Physical stability (visual), Day 2 [4, 6]: Precipitated
Physical stability (visual), Day 5 [4, 6]: Precipitated
Physical stability (visual), Day 6 [4, 6]: Precipitated
Physical stability (visual), Day 40 [4, 6]: Precipitated
Physical stability (visual), Day 1 [4, 7]: Stable
Physical stability (visual), Day 2 [4, 7]: Stable
Physical stability (visual), Day 5 [4, 7]: Precipitated
Physical stability (visual), Day 6 [4, 7]: Precipitated
Physical stability (visual), Day 40 [4, 7]: Precipitated
Physical stability (visual), Day 1 [4, 8]: Stable
Physical stability (visual), Day 2 [4, 8]: Stable
Physical stability (visual), Day 5 [4, 8]: Precipitated
Physical stability (visual), Day 6 [4, 8]: Precipitated
Physical stability (visual), Day 40 [4, 8]: Precipitated
